We go through ten compounds from US9890185B2, “Urea derivatives useful as kinase inhibitors” (Respivert Limited, priority 2013, dated 2018).

One may read the IC50 as the midpoint of a concentration-inhibition curve. In general, inhibition refers to how much of the control response was suppressed.

In experiment [1] the target is p38 MAPKα isoform (MAPK14) (Homo sapiens (Human), UniProt Q16539). Kind of experiment: p38 MAPKα enzyme inhibition (FRET, Z-LYTE, Method 2). The experiment is classed as biochemical. In a few lines: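 Z-LYTE FRET: p38 MAPKα (80 ng/mL for Method 1, 200 ng/mL for Method 2, pre-dilution) preincubated 2 hr RT with compound (4–0.004 μg/mL solutions), activity read via MAPKAP-K2 phosphorylation after 1 hr RT and 1 hr protease development. Coumarin/fluorescein ratio gives phosphorylation; % inhibition versus uninhibited control, IC50 from concentration-response curve.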
Chain of p38 MAPKα isoform (MAPK14) (Q16539 whole entry, canonical isoform): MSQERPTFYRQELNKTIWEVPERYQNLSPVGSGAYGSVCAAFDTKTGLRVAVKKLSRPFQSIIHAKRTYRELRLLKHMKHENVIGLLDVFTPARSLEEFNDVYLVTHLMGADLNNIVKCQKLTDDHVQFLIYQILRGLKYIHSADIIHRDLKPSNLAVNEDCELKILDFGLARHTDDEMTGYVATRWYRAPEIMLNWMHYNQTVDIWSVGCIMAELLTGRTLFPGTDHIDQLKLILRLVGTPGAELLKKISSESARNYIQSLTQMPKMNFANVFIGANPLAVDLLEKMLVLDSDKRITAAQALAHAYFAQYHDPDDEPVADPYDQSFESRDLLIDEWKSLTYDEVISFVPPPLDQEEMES

Experiment [2] relates to PBMCs. Description: LPS-induced IL-8 release in PBMC cells (assay b). The class given is cell-based, human. Conditions: Homo sapiens, PBMC; LPS-stimulated PBMCs; read-out: IC50 Values for Inhibition of Cytokine Release, PBMCs IL-8. Put shortly: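 Human PBMCs from healthy donors, isolated by density gradient, were pretreated with compound for 2 h and then stimulated with 1 ng/mL LPS (E. coli 0111:B4) for 24 h at 37° C, 5% CO2. Supernatant IL-8 and TNFα were measured by sandwich ELISA, and IC50 was taken from the dose-response curve.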

The target of experiment [3] is GSK 3α (Homo sapiens (Human), UniProt P49840). Kind of experiment: GSK 3α enzyme inhibition (FRET, Z-LYTE, Method 2). The experiment is classed as biochemical. The following applies: read-out: IC50 Values for Enzyme Inhibition, GSK3α. In a few lines: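 Human GSK3α (500 ng/mL) preincubated with compound (4, 0.4, 0.04 or 0.004 μg/mL) at RT for 2 h (Method 1) or 105 min (Method 2). Then FRET peptide (8 μM) and ATP (40 μM) added for 1 h, followed by protease development for 1 h. IC50 from the coumarin/fluorescein emission ratio relative to uninhibited control.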
Chain of GSK 3α (P49840 whole entry): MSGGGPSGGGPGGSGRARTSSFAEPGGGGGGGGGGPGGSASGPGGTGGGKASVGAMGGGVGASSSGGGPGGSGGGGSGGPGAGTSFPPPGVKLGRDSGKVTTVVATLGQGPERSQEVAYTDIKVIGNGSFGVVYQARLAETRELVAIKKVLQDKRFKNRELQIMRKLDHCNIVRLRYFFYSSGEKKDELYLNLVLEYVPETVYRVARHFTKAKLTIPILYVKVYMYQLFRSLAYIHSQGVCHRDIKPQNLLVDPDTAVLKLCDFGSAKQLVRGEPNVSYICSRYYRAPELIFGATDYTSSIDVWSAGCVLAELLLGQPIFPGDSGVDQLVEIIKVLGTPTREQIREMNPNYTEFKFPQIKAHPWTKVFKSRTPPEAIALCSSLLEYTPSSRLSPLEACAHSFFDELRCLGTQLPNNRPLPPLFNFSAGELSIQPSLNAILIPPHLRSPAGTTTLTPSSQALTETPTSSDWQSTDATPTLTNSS

Experiment [4] concerns the target c-Src (Homo sapiens (Human), UniProt P12931). Description: c-Src enzyme inhibition (FRET, Z-LYTE). The experiment is classed as biochemical. Put shortly:
(§1)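 Fluorescence-ratio kinase assay: 2 hr compound–enzyme preincubation at RT, 1 hr reaction with ATP added as 800 μM (c-Src) or 60 μM (Syk) solution. IC50 derived from percent inhibition curves.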

The subject of experiment [5] is PBMCs. Description: IFN gamma release in CD3/CD28 stimulated PBMC cells (assay c). The following applies: Homo sapiens, read-out: IC50 Values for Inhibition of Cytokine Release, PBMCs IFNγ. The experiment is classed as cell-based. In a few lines:
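Healthy-donor PBMCs (density-gradient isolated) stimulated on plates pre-coated with anti-CD3 (0.3 μg/mL) and anti-CD28 (3 μg/mL), with compound, for 3 days under normal culture conditions. IL-2 and IFN gamma in supernatants measured by sandwich ELISA; IC50 from dose-response curve.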

In experiment [6] the test system is PBMCs. Description: Cell mitosis assay in PBMCs (assay g). The experiment is classed as cell-based. The following applies: Homo sapiens, PBMC, test compound 5 μg/mL. In a few lines: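 Human PBMCs from healthy donors, stimulated with 2% PHA for 48 hr, then exposed to test compounds for 20 hr, with demecolcine (0.1 μg/mL) added 2 hr before harvest. Cells fixed/permeabilised, stained for phospho-histone 3 and propidium iodide, and read by flow cytometry gated on lymphocytes. % mitosis inhibition vs 0.5% DMSO vehicle.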

Experiment [7] addresses Syk (Homo sapiens (Human), UniProt P43405). Kind of experiment: Syk enzyme inhibition (FRET, Z-LYTE). The class given is biochemical. Put shortly: as §1
Experiment [8] has as its system PBMCs. Description: IL-2 release in CD3/CD28 stimulated PBMC cells (assay c). The experiment is classed as cell-based. The following applies: Homo sapiens, read-out: IC50 Values for Inhibition of Cytokine Release, PBMCs IL-2. On the procedure:
PBMCs from healthy subjects are separated from whole blood using a density gradient (Lymphoprep, Axis-Shield Healthcare). Cells are added to a 96 well plate pre-coated with a mixture of CD3/CD28 monoclonal antibodies (0.3 μg/mL eBioscience and 3 μg/mL BD Pharmingen respectively). Compound at the desired concentration is then added to the wells and the plate left for 3 days under normal tissue culture conditions. Supernatants are harvested and IL-2 and IFN gamma release determined by Sandwich ELISA (Duo-set, R&D System). The IC50 is determined from the dose response curve.

Chain of c-Src (P12931 whole entry, looked up): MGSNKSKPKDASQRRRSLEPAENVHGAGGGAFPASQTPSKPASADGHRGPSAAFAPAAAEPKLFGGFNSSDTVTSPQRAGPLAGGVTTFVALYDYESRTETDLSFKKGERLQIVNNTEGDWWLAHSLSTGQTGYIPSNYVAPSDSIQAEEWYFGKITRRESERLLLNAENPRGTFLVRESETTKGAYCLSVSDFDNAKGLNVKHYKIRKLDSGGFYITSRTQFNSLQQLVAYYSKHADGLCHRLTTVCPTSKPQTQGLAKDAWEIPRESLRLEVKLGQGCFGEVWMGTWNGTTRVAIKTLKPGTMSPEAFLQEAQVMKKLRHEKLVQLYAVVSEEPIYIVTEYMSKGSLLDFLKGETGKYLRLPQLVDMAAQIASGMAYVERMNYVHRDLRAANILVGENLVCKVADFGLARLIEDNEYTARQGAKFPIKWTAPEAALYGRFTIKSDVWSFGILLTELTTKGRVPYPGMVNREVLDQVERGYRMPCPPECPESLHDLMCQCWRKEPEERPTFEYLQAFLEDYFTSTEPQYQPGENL

As for `COc1cc(Nc2cc(Oc3ccc(NC(=O)Nc4cc(C(C)(C)C)cc(P(C)(C)=O)c4OC)c4ccccc34)ccn2)cc(S(=O)(=O)N(C)C)c1` [Example 58, 3-((4-((4-(3-(5-(tert-Butyl)-3-(dimethylphosphoryl)-2-methoxyphenyl)ureido)naphthalen-1-yl)oxy)pyridin-2-yl)amino)-5-methoxy-N,N-dimethylbenzenesulfonamide], the 50% inhibitory concentration (IC50) was 527 nM in experiment [1]; 1.4 nM in experiment [2]; 7100 nM in experiment [3]; 101 nM in experiment [4]; 3.2 nM in experiment [5]; greater than 1340 nM in experiment [7]. In addition, the IC50 in experiment [8] is 587 nM. For the same compound, in experiment [6], the inhibition at 5 µg/mL stood at 2.9%.
For `COCCOCCOCCNC(=O)c1cc(Nc2cc(Oc3ccc(NC(=O)Nc4cc(C(C)(C)C)cc(C(=O)NCCN5CCOCC5)c4OC)c4ccccc34)ccn2)cc(OC)c1` [Example 59, 5-(tert-Butyl)-2-methoxy-3-(3-(4-((2-((3-methoxy-5-((2-(2-(2-methoxyethoxy)ethoxy)ethyl)carbamoyl)phenyl)amino)pyridin-4-yl)oxy)naphthalen-1-yl)ureido)-N-(2-morpholinoethyl)benzamide], the 50% inhibitory concentration (IC50) turned out to be 127 nM in experiment [1]; 1.7 nM in experiment [2]; 2510 nM in experiment [3]; 43 nM in experiment [4]; 2.9 nM in experiment [5]; 560 nM in experiment [7]. The concentration for half-maximal inhibition (IC50) in experiment [8] was 55.6 nM. This compound displayed an inhibition at 5 µg/mL in experiment [6] of 30.9%.
In the case of `COc1cccc(Nc2cc(Oc3ccc(NC(=O)Nc4cc(C(C)(C)C)cc(C(=O)NCCN5CCOCC5)c4OC)c4ccccc34)ccn2)c1` [Example 63, 5-(tert-Butyl)-2-methoxy-3-(3-(4-((2-((3-methoxyphenyl)amino)pyridin-4-yl)oxy)naphthalen-1-yl)ureido)-N-(2-morpholinoethyl)benzamide], the IC50 was 811 nM in experiment [1]; 2.5 nM in experiment [2]; 7660 nM in experiment [3]; 98 nM in experiment [4]; 7.7 nM in experiment [5]; 154 nM in experiment [7]. In experiment [8], the half-inhibitory concentration (IC50) is 17.5 nM. The compound further displayed an inhibition at 5 µg/mL in experiment [6] of 45.1%.
Turning to `COc1cc(Nc2cc(Oc3ccc(NC(=O)Nc4cc(C(C)(C)C)cc(S(C)(=O)=O)c4OC)c4ccccc34)ccn2)cc(C(=O)NCCN2CC[S+]([O-])CC2)c1` [38(an), 3-((4-((4-(3-(5-(tert-Butyl)-2-methoxy-3-(methylsulfonyl)phenyl)ureido)naphthalen-1-yl)oxy)pyridin-2-yl)amino)-5-methoxy-N-(2-(1-oxidothiomorpholino)ethyl)benzamide], the IC50 in experiment [1] worked out at 48 nM; in experiment [2], 3.8 nM; in experiment [3], 3600 nM; in experiment [4], 24 nM; in experiment [5] it was 8.2 nM; in experiment [7], 99 nM. Also, the IC50 in experiment [8] is 81.8 nM. This compound showed an inhibition at 5 µg/mL in experiment [6] of 30.1%.
Take `COCCOCCOCCNC(=O)c1cc(Nc2cc(Oc3ccc(NC(=O)Nc4cc(C(C)(C)C)cc(CNC(C)=O)c4OC)c4ccccc34)ccn2)cc(OC)c1` [38(y), 3-((4-((4-(3-(3-(Acetamidomethyl)-5-(tert-butyl)-2-methoxyphenyl)ureido)naphthalen-1-yl)oxy)pyridin-2-yl)amino)-5-methoxy-N-(2-(2-(2-methoxyethoxy)ethoxy)ethyl)benzamide]: the 50% inhibitory concentration (IC50) amounted to 21 nM in experiment [1]; 0.5 nM in experiment [2]; 867 nM in experiment [3]; 15 nM in experiment [4]; 7.9 nM in experiment [5]; 393 nM in experiment [7]. For the same compound, the IC50 in experiment [8] worked out at 28.3 nM. In experiment [6], the inhibition at 5 µg/mL came out at 65.7%.
For `COc1cc(C#N)cc(Nc2cc(Oc3ccc(NC(=O)Nc4cc(C(C)(C)C)cc(CC(N)=O)c4OC)c4ccccc34)ccn2)c1` [38(ah), 2-(5-(tert-Butyl)-3-(3-(4-((2-((3-cyano-5-methoxyphenyl)amino)pyridin-4-yl)oxy)naphthalen-1-yl)ureido)-2-methoxyphenyl)acetamide], the IC50 in experiment [1] is 619 nM; in experiment [2], 2.3 nM; in experiment [3] it was 13900 nM; in experiment [4] it was 311 nM; in experiment [5] it was 10.6 nM; in experiment [7] it was greater than 1550 nM. Further, the IC50 in experiment [8] came out at 350 nM. The same compound displayed an inhibition at 5 µg/mL in experiment [6] of 6.7%.
Take `COc1cc(Nc2cc(Oc3ccc(NC(=O)Nc4cc(C(C)(C)C)cc(C(=O)NCCN5CCOCC5)c4OC)c4ccccc34)ccn2)cc(C(=O)NCCN2CCOCC2)c1` [Example 60, 5-(tert-Butyl)-2-methoxy-3-(3-(4-((2-((3-methoxy-5-((2-morpholinoethyl)carbamoyl)phenyl)amino)pyridin-4-yl)oxy)naphthalen-1-yl)ureido)-N-(2-morpholinoethyl)benzamide]: the IC50 came to 128 nM in experiment [1]; 2.4 nM in experiment [2]; 1700 nM in experiment [3]; 35 nM in experiment [4]; 7 nM in experiment [5]; 206 nM in experiment [7]. Moreover, the IC50 in experiment [8] was 101 nM. This compound also came in with an inhibition at 5 µg/mL in experiment [6] of 47.5%.
As for `COc1cc(Nc2cc(Oc3ccc(NC(=O)Nc4cc(C(C)(C)C)cc(OCCO)c4OC)c4ccccc34)ccn2)cc(C(N)=O)c1` [Example 57, 3-((4-((4-(3-(5-(tert-Butyl)-3-(2-hydroxyethoxy)-2-methoxyphenyl)ureido)naphthalen-1-yl)oxy)pyridin-2-yl)amino)-5-methoxybenzamide], the IC50 in experiment [1] was 209 nM; in experiment [2], 1.1 nM; in experiment [3], 3870 nM; in experiment [4], 98 nM; in experiment [5], 7.8 nM; in experiment [7] it was greater than 1500 nM. Further, the IC50 in experiment [8] worked out at 92.9 nM. Also, in experiment [6], the inhibition at 5 µg/mL amounted to 50.6%.
Take `COCCOCCOCCNC(=O)c1cc(Nc2cc(Oc3ccc(NC(=O)Nc4cc(C(C)(C)C)cc(CC(N)=O)c4OC)c4ccccc34)ccn2)cc(OC)c1` [Example 53, 3-((4-((4-(3-(3-(2-Amino-2-oxoethyl)-5-(tert-butyl)-2-methoxyphenyl)ureido)naphthalen-1-yl)oxy)pyridin-2-yl)amino)-5-methoxy-N-(2-(2-(2-methoxyethoxy)ethoxy)ethyl)benzamide]: the 50% inhibitory concentration (IC50) was 12 nM in experiment [1]; 1.1 nM in experiment [2]; 1560 nM in experiment [3]; 22 nM in experiment [4]; 6 nM in experiment [5]; greater than 1240 nM in experiment [7]. Besides, the 50% inhibitory concentration (IC50) in experiment [8] turned out to be 52.5 nM. In addition, the inhibition at 5 µg/mL in experiment [6] came out at 22.3%.
Take `COc1cc(Nc2cc(Oc3ccc(NC(=O)Nc4cc(C(C)(C)C)cc(CC(N)=O)c4OC)c4ccccc34)ccn2)cc(C(=O)NCCN2CC[S+]([O-])CC2)c1` [Example 65, 3-((4-((4-(3-(3-(2-Amino-2-oxoethyl)-5-(tert-butyl)-2-methoxyphenyl)ureido)naphthalen-1-yl)oxy)pyridin-2-yl)amino)-5-methoxy-N-(2-(1-oxidothiomorpholino)ethyl)benzamide]: the 50% inhibitory concentration (IC50) in experiment [1] came out at 17 nM; in experiment [2] it was 4.3 nM; in experiment [3] it was 1220 nM; in experiment [4], 15 nM; in experiment [5] it was 7.6 nM; in experiment [7], 190 nM. The IC50 in experiment [8] came out at 31.3 nM. In experiment [6], testing at 5 µg/mL gave an inhibition of 8.7%.
